In US12599672B2, “KRAS proteolysis targeting chimeras” (PAQ Therapeutics Inc., priority 2023, dated 2026) one finds DC50 data, which are given here for 13 molecules.

SMILES strings stand for the structures.

Common to all, as to type: cell-based
The target of one test is T1, KRAS (Homo sapiens, UniProt P01116).
T1 construct: endogenous in cells; host or cells: KE39 (KRAS amplified) cells
Description: KRASamp MSD assay. Conditions: KE39 (KRAS amplified) cells, treated with test compounds for 24 hr, MSD readout of KRAS degradation. The protocol: KE39 (KRAS amplified) cells were cultured in RPMI 1640 medium (Gibco, 11875093), seeded into 96 well plate and treated with test compounds for 24 hr. The cells were washed with PBS and lysed in plate for 1 hr at 4° C. with agitation in RIPA buffer (Cat No. BP-115D) supplemented with protease and phosphatase inhibitor cocktail. The lysates were loaded into MSD plate coated with KRAS capture antibody (LSBio, C175665, 1:1000) for 1 h at RT with agitation. The plate was then washed three times with TBST and incubated with KRAS detection antibody (Abcam, Ab275876. 1:2000) for 1 h at RT. After washing three times with TBST, the plate was incubated with secondary detection antibody GAR (1:500) for 1 hr at RT followed with 3×TBST washing. 2×MSD reading buffer was added into individual wells and the plate was finally read by MSD reader (MSD, SQ 120 MM). The recombinant WT KRAS protein was used for standard curve generation and protein quantification. The degradation activity was calculated using the following formula: […]
DC50 was calculated by fitting the curve using GraphPad Prism v8.0.2 (analysis 263): […]

The target of a further test is T2, KRAS G12D (Homo sapiens, UniProt P01116, G12D).
T2 construct: AsPc-1-KRAS (G12D)-HiBit-KI cell (Pharmaron); host or cells: AsPc-1-KRAS (G12D)-HiBit-KI cells (HiBiT knock-in at the endogenous KRAS locus)
Description: KRAS G12D HiBit assay. To be noted: AsPc-1-KRAS (G12D)-HiBit-KI cell, compound treatment for 24 hours, absolute DC50. In a few lines:
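HiBiT luminescence, detected by adding lytic buffer, substrate and LgBiT protein, served as the KRAS G12D read-out. Compounds, serially diluted 3-fold over 10 points from 0.3 mM DMSO stock, were on cells for 24 h; percent inhibition normalized to cells given 0.1% DMSO only.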

The target of the next test is T3, KRAS G12V (Homo sapiens, UniProt P01116, G12V).
T3 construct: SW620-KRAS (G12V)-HiBit-KI cell (Pharmaron); host or cells: SW620-KRAS (G12V)-HiBit-KI cells (HiBiT knock-in at the endogenous KRAS locus)
Description: KRAS G12V HiBit assay. Conditions: SW620-KRAS (G12V)-HiBit-KI cells, compound treatment for 24 hours, class symbols. An outline of the steps:
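Luminescence from lytic Nano-Glo HiBiT detection with LgBiT read KRAS G12V levels after 24 h compound exposure. Dilutions were 10-point, 3-fold, from a 0.3 mM DMSO stock. Degradation activity was normalised to cells given 0.1% DMSO alone.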

Setting [1] is: numeric bounds given in place of class symbols.

T3 sequence (P01116 1-188 isoform P01116-2 G12V): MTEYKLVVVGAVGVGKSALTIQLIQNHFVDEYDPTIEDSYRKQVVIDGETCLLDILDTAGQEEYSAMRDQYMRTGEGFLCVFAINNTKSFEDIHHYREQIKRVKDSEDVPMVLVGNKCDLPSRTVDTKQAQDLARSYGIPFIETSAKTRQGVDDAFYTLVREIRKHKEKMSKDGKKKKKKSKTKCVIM
T2 sequence (P01116 1-188 isoform P01116-2 G12D): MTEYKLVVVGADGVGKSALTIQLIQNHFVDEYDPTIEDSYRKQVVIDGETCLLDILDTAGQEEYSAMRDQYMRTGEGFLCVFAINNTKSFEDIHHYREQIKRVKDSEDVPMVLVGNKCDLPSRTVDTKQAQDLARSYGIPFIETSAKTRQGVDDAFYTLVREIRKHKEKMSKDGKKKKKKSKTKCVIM
T1 sequence (P01116 1-188 isoform P01116-2): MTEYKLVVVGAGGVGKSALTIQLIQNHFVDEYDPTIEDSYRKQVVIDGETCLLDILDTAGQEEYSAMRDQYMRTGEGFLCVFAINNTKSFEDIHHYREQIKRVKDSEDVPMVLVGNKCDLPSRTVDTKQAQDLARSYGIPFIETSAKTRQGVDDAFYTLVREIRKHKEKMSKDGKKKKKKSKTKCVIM

For `CCc1cccc2cc(O)cc(-c3cc4nc(OC[C@@]56CCCN5[C@H](COC(=O)N5CCC(CN7CCC(c8ccc9c(c8)n(C)c(=O)n9C8CCC(=O)NC8=O)CC7)CC5)CC6)nc(N5CCC[C@@](C)(O)C5)c4cn3)c12` (stereo partly drawn) [Compound 378, ((3S,7aS)-7a-(((7-(8-ethyl-3-hydroxynaphthalen-1-yl)-4-((R)-3-hydroxy-3-methylpiperidin-1-yl)pyrido[4,3-d]pyrimidin-2-yl)oxy)methyl)hexahydro-1H-pyrrolizin-3-yl)methyl 4-((4-(1-(2,6-dioxopiperidin-3-yl)-3-methyl-2-oxo-2,3-dihydro-1H-benzo[d]imidazol-5-yl)piperidin-1-yl)methyl)piperidine-1-carboxylate], the DC50 at KRAS is under 1 nM; at KRAS G12D (class symbols) it was under 100 nM; on KRAS G12V, under 10 nM.
With `CCc1c(F)ccc2cc(O)cc(-c3ncc4c(N5CCCC(F)(F)C5)nc(OC[C@@]56CCCN5[C@H](COC(=O)N5CCC(CN7CCC(c8ccc9c(c8)n(C)c(=O)n9C8CCC(=O)NC8=O)CC7)CC5)CC6)nc4c3F)c12` (stereo partly drawn) [Compound 437, ((3S,7aS)-7a-(((4-(3,3-difluoropiperidin-1-yl)-7-(8-ethyl-7-fluoro-3-hydroxynaphthalen-1-yl)-8-fluoropyrido[4,3-d]pyrimidin-2-yl)oxy)methyl)hexahydro-1H-pyrrolizin-3-yl)methyl 4-((4-(1-(2,6-dioxopiperidin-3-yl)-3-methyl-2-oxo-2,3-dihydro-1H-benzo[d]imidazol-5-yl)piperidin-1-yl)methyl)piperidine-1-carboxylate], the DC50 was under 1 nM at KRAS, under 100 nM at KRAS G12D (class symbols) and under 10 nM on KRAS G12V.
On to `C#Cc1c(F)ccc2cc(O)cc(-c3ncc4c(N5CCC[C@@](C)(O)C5)nc(OC[C@@]56CCCN5[C@H](COC(=O)N5CCC(C7CCN(c8ccc9c(c8)n(C)c(=O)n9C8CCC(=O)NC8=O)CC7)CC5)CC6)nc4c3F)c12` (stereo partly shown) [Compound 32], for which the figures for the DC50 at KRAS and at KRAS G12D (setting [1]) were 1 to 10 nM and over 100 nM, respectively.
Consider `CCc1c(F)ccc2cc(O)cc(-c3ncc4c(N5CCC[C@@](C)(O)C5)nc(OC[C@@]56CCCN5C(COCCCN5CCC(c7ccc8c(c7)n(C)c(=O)n8C7CCC(=O)NC7=O)CC5)CC6)nc4c3F)c12` (stereo partly drawn) [Compound 490, 3-(5-(1-(3-(((7aS)-7a-(((7-(8-ethyl-7-fluoro-3-hydroxynaphthalen-1-yl)-8-fluoro-4-((R)-3-hydroxy-3-methylpiperidin-1-yl)pyrido[4,3-d]pyrimidin-2-yl)oxy)methyl)hexahydro-1H-pyrrolizin-3-yl)methoxy)propyl)piperidin-4-yl)-3-methyl-2-oxo-2,3-dihydro-1H-benzo[d]imidazol-1-yl)piperidine-2,6-dione], for which the DC50 on KRAS G12D (setting [1]) and on KRAS G12V was over 100 nM throughout.
As to `CCc1c(F)ccc2cc(O)cc(-c3ncc4c(N5CCC[C@@](C)(O)C5)nc(OC[C@@]56CCCN5[C@H](COC(=O)N5CCC(N7CC8(CCN(c9ccc%10c(c9)n(C)c(=O)n%10C9CCC(=O)NC9=O)CC8)C7)CC5)CC6)nc4c3F)c12` (stereo partly drawn) [Compound 362, ((3S,7aS)-7a-(((7-(8-ethyl-7-fluoro-3-hydroxynaphthalen-1-yl)-8-fluoro-4-((R)-3-hydroxy-3-methylpiperidin-1-yl)pyrido[4,3-d]pyrimidin-2-yl)oxy)methyl)hexahydro-1H-pyrrolizin-3-yl)methyl 4-(7-(1-(2,6-dioxopiperidin-3-yl)-3-methyl-2-oxo-2,3-dihydro-1H-benzo[d]imidazol-5-yl)-2,7-diazaspiro[3.5]nonan-2-yl)piperidine-1-carboxylate], the results for the DC50 on KRAS G12D (class symbols) and on KRAS G12V were under 100 nM and under 10 nM, respectively.
For `C#Cc1c(F)ccc2cc(O)cc(-c3ncc4c(N5CCC[C@@](C)(O)C5)nc(OCC5(CN6CCN(CCN7CCN(c8ccc9c(c8)n(C)c(=O)n9C8CCC(=O)NC8=O)CC7)CC6)CC5)nc4c3F)c12` (stereo partly shown) [Compound 28] the same measures were under 100 nM and over 100 nM.
Consider `CCc1c(F)ccc2cc(O)cc(-c3ncc4c(N5CCC[C@@](C)(O)C5)nc(OC[C@@]56CCCN5[C@H](COC(=O)N5CCC7(CC5)CN(C5CCN(c8ccc9c(c8)n(C)c(=O)n9C8CCC(=O)NC8=O)CC5)C7)CC6)nc4c3F)c12` (stereo partly drawn) [Compound 463, ((3S,7aS)-7a-(((7-(8-ethyl-7-fluoro-3-hydroxynaphthalen-1-yl)-8-fluoro-4-((R)-3-hydroxy-3-methylpiperidin-1-yl)pyrido[4,3-d]pyrimidin-2-yl)oxy)methyl)hexahydro-1H-pyrrolizin-3-yl)methyl 2-(1-(1-(2,6-dioxopiperidin-3-yl)-3-methyl-2-oxo-2,3-dihydro-1H-benzo[d]imidazol-5-yl)piperidin-4-yl)-2,7-diazaspiro[3.5]nonane-7-carboxylate], for which the results for the DC50 at KRAS G12D (class symbols) and on KRAS G12V were under 100 nM and under 10 nM, respectively.
The matching figures for `CCc1c(F)ccc2cc(O)cc(-c3ncc4c(N5CCC[C@@](C)(O)C5)nc(OC[C@@]56CCCN5[C@H](COC(=O)N5CC7CC(C5)C7CN5CCC(c7ccc8c(c7)n(C)c(=O)n8C7CCC(=O)NC7=O)CC5)CC6)nc4c3F)c12` (stereo partly drawn) [Compound 400, ((3S,7aS)-7a-(((7-(8-ethyl-7-fluoro-3-hydroxynaphthalen-1-yl)-8-fluoro-4-((R)-3-hydroxy-3-methylpiperidin-1-yl)pyrido[4,3-d]pyrimidin-2-yl)oxy)methyl)hexahydro-1H-pyrrolizin-3-yl)methyl 6-((4-(1-(2,6-dioxopiperidin-3-yl)-3-methyl-2-oxo-2,3-dihydro-1H-benzo[d]imidazol-5-yl)piperidin-1-yl)methyl)-3-azabicyclo[3.1.1]heptane-3-carboxylate]: under 100 nM and under 10 nM.
The matching figures for `CCc1c(F)ccc2cc(O)cc(-c3ncc4c(N5CCC[C@@](C)(O)C5)cc(OC[C@@]56CCCN5[C@H](COC(=O)N5CCC(CN7CCC(c8ccc9c(c8)n(C)c(=O)n9C8CCC(=O)NC8=O)CC7)CC5)CC6)nc4c3F)c12` (stereo partly drawn) [Compound 492, ((3S,7aS)-7a-(((7-(8-ethyl-7-fluoro-3-hydroxynaphthalen-1-yl)-8-fluoro-4-((R)-3-hydroxy-3-methylpiperidin-1-yl)-1,6-naphthyridin-2-yl)oxy)methyl)hexahydro-1H-pyrrolizin-3-yl)methyl 4-((4-(1-(2,6-dioxopiperidin-3-yl)-3-methyl-2-oxo-2,3-dihydro-1H-benzo[d]imidazol-5-yl)piperidin-1-yl)methyl)piperidine-1-carboxylate]: under 100 nM and over 100 nM.
For `C#Cc1c(F)ccc2cc(O)cc(-c3ncc4c(N5CCC[C@@](C)(O)C5)nc(OCC5(CN6CCN(Cc7ccc8c(c7)n(C)c(=O)n8C7CCC(=O)NC7=O)CC6)CC5)nc4c3F)c12` (stereo partly shown) [Compound 42] the same measures were over 300 nM and over 100 nM.
With `CCc1c(F)ccc2cc(O)cc(-c3ncc4c(N5CCC[C@@](C)(O)C5)nc(OC[C@@]56CCCN5[C@H](COc5ccc(CCN7CCC(c8ccc9c(c8)n(C)c(=O)n9C8CCC(=O)NC8=O)CC7)cc5)CC6)nc4c3F)c12` (stereo partly drawn) [Compound 499, 3-(5-(1-(4-(((3S,7aS)-7a-(((7-(8-Ethyl-7-fluoro-3-hydroxynaphthalen-1-yl)-8-fluoro-4-((R)-3-hydroxy-3-methylpiperidin-1-yl)pyrido[4,3-d]pyrimidin-2-yl)oxy)methyl)hexahydro-1H-pyrrolizin-3-yl)methoxy)phenethyl)piperidin-4-yl)-3-methyl-2-oxo-2,3-dihydro-1H-benzo[d]imidazol-1-yl) piperidine-2,6-dione], the DC50 on KRAS G12D (class symbols) was under 100 nM; at KRAS G12V it was 10 to 100 nM.
The matching figures for `Cn1c(=O)n(C2CCC(=O)NC2=O)c2ccc(C3CCN(CC4CCN(C(=O)CN5CCN(c6nccc(-c7noc([C@@]8(C)CCCc9sc(N)c(C#N)c98)n7)n6)CC5)CC4)CC3)cc21` (stereo partly shown) [Compound 224]: over 300 nM and over 100 nM.
For `Cn1c(=O)n(C2CCC(=O)NC2=O)c2cccc(C3CCN(CC4CCN(C(=O)CN5CCN(c6nccc(-c7noc([C@@]8(C)CCCc9sc(N)c(C#N)c98)n7)n6)CC5)CC4)CC3)c21` (stereo partly shown) [Compound 222], the DC50 on KRAS G12D (class symbols) is over 300 nM; on KRAS G12V, over 100 nM.
